Patent US5229379A, “Certain N-substituted-amino-alkane phosphinic acid derivatives having anti-epileptic properties” (priority 1990, dated 1993)

Legend:
[1] = system: "spike and wave" discharges induced by phenytoin in epileptic rats; test: Antagonism of the spike and wave discharges induced by phenytoin in epileptic rats; assay type: in vivo, rat
Protocol: (§1) The method and test arrangement correspond to those of Pharmacological Example 1.
3-Aminopropyl(diethoxymethyl)phosphinic acid: Antagonism of the "spike and wave" discharges induced by phenytoin. 3-Aminopropyl(diethoxymethyl)phosphinic acid was administered at time 0, and 20 mg/kg of phenytoin were administered at time 40, in each case i.p..

[2] = system: "spike and wave" discharges induced by Vigabatrin® in epileptic rats; test: Antagonism of the spike and wave discharges induced by Vigabatrin in epileptic rats; assay type: in vivo, rat
Protocol: as §1
3-Aminopropyl(diethoxymethyl)phosphinic acid: Antagonism of the "spike and wave" discharges induced by Vigabatrin®.3-Aminopropyl(diethoxymethyl)phosphinic acid was administered at time 0, and 20 mg/kg of Vigabatrin® were administered at time 160, in each case i.p..

[3] = system: "spike and wave" discharges induced by carbamazepine in epileptic rats; test: Antagonism of the spike and wave discharges induced by carbamazepine in epileptic rats; assay type: in vivo, rat
Protocol: as §1
3-Aminopropyl(diethoxymethyl)phosphinic acid: Antagonism of the "spike and wave" discharges induced by carbamazepine. 3-Aminopropyl(diethoxymethyl)phosphinic acid was administered at time 0, and 20 mg/kg of carbamazepine were administered at time 40, in each case i.p..

[4] = system: "spike and wave" discharges in epileptic rats (male Wistar rats of the Strasbourg colony); test: Inhibition of spike and wave discharges in epileptic rats (absence epilepsy model); assay type: in vivo; details: epileptic rat model; for minimal effective dose: dose-dependent, read-out: dose that reduces the spike and wave discharges
Excerpt: Synchronous "spike and wave" discharges (SWD; frontopariental cortex; 7-8 Hz; 300-1000 μV, duration 0.5 to 40 s, mean value=6.0±3.4 s) and frequently myoclonia facialis accompany a cessation of behaviour. These absence-like conditions occur spontaneously and repeatedly. […] In contrast, a strain could be reared in which 100% of the rats are SWD-free (control rats). This pharmacological model is described in Vergnes M., Marescaux C., Micheletti G., Reis J., Depaulis A., Rumbach L. and Warter J. M., Neurosci. Lett. 33. 97-101 (1982).
In this model, for example, the clinically used anti-epileptics ethosuximide, diazepam, trimethadione and sodium valproate in doses≥25 mg/kg (ethosuximide),≥0.5 mg/kg (diazepam) and≥50 mg/kg (trimethadione and sodium valproate) reduce the spike and wave discharges in dose-dependent manner. […] Phenobarbital is effective at from 2.5 to 10 mg/kg and is ineffective at 20 mg/kg. The action of these anti-epileptics on the crises in rats and absences in humans supports the hypothesis that this animal model represents a pharmacological model for absence epilepsy. Its predictive value appears to be at least as good as that of other customary animal models.
The action of GABAB -antagonists was tested on male Wistar rats (300-400 g) of the Strasbourg colony. […] The rats received water and food ad libidum, and the light/dark cycle was 12/12 hours. The rats were anaesthetised with pentobarbital (40 mg/kg i.p.) and implanted bilaterally with 4 stainless steel electrodes (two in the frontal cortex and two in the parietal cortex). The rats were used for experiments no sooner than one week after the operation.
The rats, which were freely mobile, were accommodated in a Plexiglass cage (17×17×28 cm) (one rat per cage), and, after a 15-minute period for adaptation to the new surroundings, the EEG was recorded over a period of 20 minutes (reference period). The reference line for the particular test series is thus obtained. A GABAB -antagonist was then administered and the EEG was recorded over a period of from 120 to 180 minutes. The rats were kept under constant observation during this period and prevented from falling asleep by gentle manual contact.
The test compound was dissolved in 0.9% sodium chloride solution and injected in doses of 50, 100, 200 and 400 mg/kg i.p.. Alternatively, the test compound may be administered in a polyethylene glycol, such as Tween® 80, (2 drops/10 ml of suspension of the test compound in 0.9% sodium chloride solution; the suspension is homogenised at 40° for 10 minutes by means of ultrasound, injection volume: 2 ml/kg) i.p. or by means of a stomach probe p.o.. Test compounds that are soluble with difficulty are advantageously administered in solution in a mixture of dimethyl sulfoxide (not more than 10% by volume) and 0.9% sodium chloride solution or in 45% aqueous hydroxypropyl-β-cyclodextrin solution. Each animal is treated with all doses in a randomised sequence. The time between two treatments should be at least 5 days. The mean values ±SEM of the sum total duration of the "spike and wave" discharges of 6 rats over a period of 20 minutes are recorded.
The sum total duration of the spike and wave discharges (in seconds) is measured for each 20-minute period of the EEG recording. Comparisons between the treatment and the reference period are carried out by means of non-parametric variance analysis of the groups concerned (Friedman test). The control group and the treated groups are compared by means of the Wilcoxon test only when a significant difference between the two groups is found in the Friedmann test. The significances of the differences according to Wilcoxon between doses marked by an asteriks and dose 0 corresponds to p<0,005.

[5] = system: "epilepsy-like" discharges of pyramidal cells; test: Penicillin-induced epileptic hippocampus section preparation (antagonism to baclofen); assay type: cell-based
Protocol: The novel GABAB -antagonists according to the invention interact at the GABAB -receptor with IC50 values of approximately 10^-8 M (moles/l) and above in cerebral cortex membranes of rats. […] The compounds according to the invention act as an antagonist to baclofen action at concentrations of from approximately 10 to approximately 100 μM (micromoles/liter). […] At doses of approximately 30 mg/kg, antagonism to the muscle-relaxing action of baclofen occurs, which is measured in the Rotarod model.

With CCOC(OCC)P(=O)(O)CCCN [3-aminopropyl(diethoxymethyl)phosphinic acid] the “sum total duration of the spike and wave discharges” value (“sum total duration” for short) ([1]; test compound 200 mg/kg i.p. at time 0, phenytoin 20 mg/kg i.p. at time 40, period 0-20 min) was 394 ± 87 s, the “sum total duration” value ([1]; test compound 200 mg/kg i.p. at time 0, phenytoin 20 mg/kg i.p. at time 40, period 20-40 min) was 172 ± 64 s and the “sum total duration” value ([1]; test compound 200 mg/kg i.p. at time 0, phenytoin 20 mg/kg i.p. at time 40, period 40-60 min) was 124 ± 85 s. For the same compound, the “sum total duration” value ([1]; test compound 200 mg/kg i.p. at time 0, phenytoin 20 mg/kg i.p. at time 40, period 60-80 min) was 239 ± 70 s, the “sum total duration” value ([1]; test compound 200 mg/kg i.p. at time 0, phenytoin 20 mg/kg i.p. at time 40, period 80-100 min) was 95 ± 37 s and the “sum total duration” value ([1]; test compound 400 mg/kg i.p. at time 0, phenytoin 20 mg/kg i.p. at time 40, period 0-20 min) was 139 ± 61 s. The “sum total duration” value ([1]; test compound 400 mg/kg i.p. at time 0, phenytoin 20 mg/kg i.p. at time 40, period 20-40 min) was 48 ± 40 s, the “sum total duration” value ([1]; test compound 400 mg/kg i.p. at time 0, phenytoin 20 mg/kg i.p. at time 40, period 40-60 min) was 31 ± 31 s and the “sum total duration” value ([1]; test compound 400 mg/kg i.p. at time 0, phenytoin 20 mg/kg i.p. at time 40, period 60-80 min) was 56 ± 53 s. For the same compound, the “sum total duration” value ([1]; test compound 400 mg/kg i.p. at time 0, phenytoin 20 mg/kg i.p. at time 40, period 80-100 min) was 42 ± 39 s, the “sum total duration” value ([2]; test compound 200 mg/kg i.p. at time 0, Vigabatrin 20 mg/kg i.p. at time 160, period 240-260 min) was 213 ± 52 s and the “sum total duration” value ([2]; test compound 200 mg/kg i.p. at time 0, Vigabatrin 20 mg/kg i.p. at time 160, period 260-280 min) was 249 ± 57 s. For the same compound, the “sum total duration” value ([2]; test compound 400 mg/kg i.p. at time 0, Vigabatrin 20 mg/kg i.p. at time 160, period 240-260 min) was 44 ± 13 s, the “sum total duration” value ([2]; test compound 400 mg/kg i.p. at time 0, Vigabatrin 20 mg/kg i.p. at time 160, period 260-280 min) was 28 ± 8 s and the “sum total duration” value ([3]; test compound 200 mg/kg i.p. at time 0, carbamazepine 20 mg/kg i.p. at time 40, period 0-20 min) was 353 ± 53 s. For the same compound, the “sum total duration” value ([3]; test compound 200 mg/kg i.p. at time 0, carbamazepine 20 mg/kg i.p. at time 40, period 20-40 min) was 178 ± 37 s, the “sum total duration” value ([3]; test compound 200 mg/kg i.p. at time 0, carbamazepine 20 mg/kg i.p. at time 40, period 40-60 min) was 173 ± 78 s and the “sum total duration” value ([3]; test compound 200 mg/kg i.p. at time 0, carbamazepine 20 mg/kg i.p. at time 40, period 60-80 min) was 70 ± 64 s. For the same compound, the “sum total duration” value ([3]; test compound 200 mg/kg i.p. at time 0, carbamazepine 20 mg/kg i.p. at time 40, period 80-100 min) was 18 ± 17 s, the “sum total duration” value ([3]; test compound 400 mg/kg i.p. at time 0, carbamazepine 20 mg/kg i.p. at time 40, period 0-20 min) was 115 ± 43 s and the “sum total duration” value ([3]; test compound 400 mg/kg i.p. at time 0, carbamazepine 20 mg/kg i.p. at time 40, period 20-40 min) was 93 ± 71 s. The “sum total duration” value ([3]; test compound 400 mg/kg i.p. at time 0, carbamazepine 20 mg/kg i.p. at time 40, period 40-60 min) was 23 ± 14 s, the “sum total duration” value ([3]; test compound 400 mg/kg i.p. at time 0, carbamazepine 20 mg/kg i.p. at time 40, period 60-80 min) was 29 ± 29 s and the “sum total duration” value ([3]; test compound 400 mg/kg i.p. at time 0, carbamazepine 20 mg/kg i.p. at time 40, period 80-100 min) was 9 ± 9 s.

For NC(=O)N1c2ccccc2C=Cc2ccccc21 [carbamazepine, reference compound], the “effect on the spike and wave discharges (in words)” value (shortened to “effect … (in words)”) [4] was “ineffective or make the attacks worse at high doses”, the “sum total duration” value ([3]; carbamazepine 20 mg/kg i.p. at time 40 alone (antagonist dose 0), period 40-60 min) was 636 ± 43 s and the “sum total duration” value ([3]; carbamazepine 20 mg/kg i.p. at time 40 alone (antagonist dose 0), period 60-80 min) was 669 ± 14 s. The “sum total duration” value ([3]; carbamazepine 20 mg/kg i.p. at time 40 alone (antagonist dose 0), period 80-100 min) was 675 ± 75 s.

C=CC(N)CCC(=O)O (stereo not shown) [Vigabatrin®, Vigabatrin, reference compound] was tested, and the “sum total duration” value ([2]; Vigabatrin 20 mg/kg i.p. at time 160 alone (antagonist dose 0), period 240-260 min) was 875 ± 63 s and the “sum total duration” value ([2]; Vigabatrin 20 mg/kg i.p. at time 160 alone (antagonist dose 0), period 260-280 min) was 938 ± 65 s.

In the case of CCCC(CCC)C(=O)[O-].[Na+] [sodium valproate], the minimal effective dose [4] is reported as ≥ 50 mg/kg.

In the case of CCC1(C)CC(=O)NC1=O (stereo not shown) [ethosuximide], the minimal effective dose [4] is reported as ≥ 25 mg/kg.

CN1C(=O)CN=C(c2ccccc2)c2cc(Cl)ccc21 [diazepam] was tested, and the minimal effective dose [4] was ≥ 0.5 mg/kg.

In the case of O=C1NC(=O)C(c2ccccc2)(c2ccccc2)N1 [phenytoin, reference compound], the “sum total duration” value ([1]; phenytoin 20 mg/kg i.p. at time 40 alone (antagonist dose 0), period 40-60 min) is reported as 555 ± 24 s, the “sum total duration” value ([1]; phenytoin 20 mg/kg i.p. at time 40 alone (antagonist dose 0), period 60-80 min) is reported as 658 ± 27 s and the “sum total duration” value ([1]; phenytoin 20 mg/kg i.p. at time 40 alone (antagonist dose 0), period 80-100 min) is reported as 562 ± 76 s. For the same compound, the “effect … (in words)” value [4] was “ineffective or make the attacks worse at high doses”.

For CN1C(=O)OC(C)(C)C1=O [trimethadione], the minimal effective dose [4] was ≥ 50 mg/kg.

With CCC1(c2ccccc2)C(=O)NC(=O)NC1=O [Phenobarbital] the “effect … (in words)” value ([4]; 20 mg/kg) was “ineffective”.

In the case of NCC(CC(=O)O)c1ccc(Cl)cc1 (stereo not shown) [baclofen], the “concentration that inhibits epilepsy-like discharges of pyramidal cells” value [5] is reported as 6 µM.
